Assay results from patent US20090082453A1, “Exogenous Methyl Dihydrojasmonate for Prevention and Control of Biotic Attack in Plants” (NEW BIOLOGY, INC., priority 2007, published 2009).

Legend:
Polyphenol Oxidase = assay: Activation of polyphenol oxidase in field-grown roses (Example 4); assay type: in vivo, 'Julia Child' roses; conditions: FIG. 5; for PPO activity: 5 mM + 0.5% canola oil + 0.125% Triton X-100, 44 hours, caffeic acid substrate
Method: Field grown 1-year old ‘Julia Child’ roses were treated with foliar sprays of two different formulations. Roses were treated by spraying the foliage of each plant to the point of drip to ensure maximum coverage. There were three plants per treatment. 44 hours after application, 3 young leaves from each plant (each leaf from a different stem and all leaves at the same stage of development) were collected and pooled for analysis of PPO activity as in Example 2 above, except that 0.5 ml of ice cold extraction buffer were used, followed by addition of 160 μl 10% Triton® X-100. 50 μl of the supernatant was added to 1 ml of PPO assay buffer. The formulations are set forth in Table 5 below, and the data is shown FIG. 5, a graph of PPO activity for the two formulations and an untreated control. Data are reported as mean and SEM for each treatment.

[1] = test system: proteinase inhibitor I and II; assay: Proteinase inhibitor I and II induction in tomato seedlings, radial immunodiffusion assay, 24 h (Example 1); assay type: in vivo; conditions: 1.5 mM in water, FIG. 1
Method: Seven test samples or groups were prepared using two week old tomato seedlings. The descriptions of the treatments given to each test sample can be found in Table 2 below. Liquid formulations were applied by spraying three squirts to the foliage with a spray bottle. Eight plants per treatment (four pots per treatment, each pot containing two seedlings) were sprayed with each test formulation. Plants from each treatment were isolated in enclosed Plexiglas boxes and placed overnight in a light- and temperature-controlled growth chamber (i.e., plants given the same treatment were isolated together in a single Plexiglas box; plants given different treatments were in different boxes). Twenty-four hours after treatment, each plant was assayed for proteinase inhibitor I and II production by a radial immunodiffusion assay using anti-inhibitor antibodies (Ryan, C. A., Analytical Biochemistry 19 (1967), pp. 424-440, the contents of which are incorporated by reference in their entirety). [table] The results for each of the test samples are shown in FIG. 1, a graph in which proteinase inhibitor levels (PI-I and PI-II) are reported in micrograms of proteinase inhibitor per milliliter of leaf extract for each test sample. The two plants per pot were pooled to give one data point per pot (i.e., four data points total were collected per treatment).

aphids = assay: Field study of aphid infestations in roses (Example 7); assay type: in vivo, aphids on 'Mr. Lincoln' roses; conditions: for concentration at which more efficacious against aphids: 1.5 mM vs 5 mM; for incidence of aphids on roses: foliar spray every 10-13 days, height of aphid pressure, FIGS. 7 and 8
Method: Potted roses of the cultivar ‘Mr. Lincoln’ were treated with 9 treatment samples (8 formulations and one untreated control). For each treatment sample, three plots having three plants each were treated, for a total of 9 plants per treatment. Roses were treated every 10-13 days by spraying the foliage of each plant to the point of drip to ensure maximum coverage. The plants were evaluated at approximately 10-day intervals for the number of aphids on each plant. Table 8 below includes the descriptions of the test formulations.
FIGS. 7 and 8 are two representations of the same data, taken at the height of aphid pressure. FIG. 7 is a histogram representing mean and SEM aphid counts on the roses with the various formulations. In FIG. 8, each data point represents the number of aphids on a single plant.

powdery mildew = assay: Treatment and control of powdery mildew in roses (Example 10); assay type: in vivo, powdery mildew on 'Mr. Lincoln' roses; conditions: beyond disease levels measured prior to first treatment
Method: Outdoor potted roses of the cultivar ‘Mr. Lincoln’ were treated with 9 treatment samples (8 formulations and one untreated control). For each treatment sample, three plots having three plants each were treated for a total of 9 plants per treatment. Roses were treated every 2 weeks by spraying the foliage of each plant to the point of drip to ensure maximum coverage. Plants were initially evaluated for powdery mildew incidence and severity prior to the first treatment of the trial. […] Subsequent evaluations followed every 10 days for 2 months. Evaluations consisted of evaluating 60 individual leaves per plot (20 leaves were collected from 3 rose plants per plot) for disease incidence and severity. Disease incidence was determined by counting the number of leaves infected. Disease severity was determined as the percentage of leaf surface infected with the disease. Analysis of Variance was calculated for both severity and incidence. Table 11 below describes the mean number of leaves found to be infected with powdery mildew for each treatment group on respective evaluation days. […] FIG. 15 is a graph illustrating the percentage of leaves infected in each treatment group. In FIG. 15, the individual bars within each treatment represent successive evaluations on days 1, 11, 21, 31, 41, 52, and 62.

trypsin inhibitor = assay: Activation of trypsin inhibitor in roses (Example 6); assay type: in vivo, white miniature roses (Parade Rose); conditions: 48 hours, FIG. 6; for proteinase (trypsin) inhibitor activity: 5.0 mM foliage spray plus root drench
Method: Potted plants of white miniature roses, marketed as Parade Rose® received one of three treatments. Roses were treated by (1) spraying the foliage of each plant to the point of drip to ensure maximum coverage; and (2) pouring 50 ml of the formulation into the soil within the root zone. There were three plants per treatment. 48 hours after treatment, all leaves from the entire plant were collected and pooled for analysis of trypsin inhibitor activity. Leaf extracts were prepared by adding 25 ml of 0.4 M sodium phosphate, pH 9, extraction buffer and 3 ml of 10% Triton® X-100 and grinding in a blender. The extract was filtered through four layers of cheesecloth. One milliliter of extract was spun at 2000×g for 15 minutes at 4-degrees and the resulting supernatant was frozen until the assay could be completed.
For the trypsin assay, rose extracts were thawed and replicates of 1, 2, and 3 μl for each extract were added to trypsin assay solution containing p-toluene-sulfonyl-L-arginine methyl ester (TAME) as the trypsin substrate. The level of trypsin activity was measured and reflects trypsin inhibition by trypsin inhibitor. Data is shown in FIG. 6, a graph of the results, and is presented as the mean and SEM of % remaining trypsin activity per gram fresh weight for 1, 2, and 3 μl. In FIG. 6, lower values represent greater trypsin inhibitor activity.

damping off disease = assay: Observational decrease in disease in tomato seedlings (Example 8); assay type: in vivo; conditions: 1.5 mM MDHJ, 0.5% canola oil, 0.125% Triton X-100 foliar spray; 17th day after treatment
Method: FIG. 9 is a photograph of an untreated tomato seedling, illustrating the damping off disease on the leaves;
One group of tomato seedlings was treated with a formulation comprising 1.5 mM MDHJ, 0.5% canola oil, and 0.125% Triton® X-100 by spraying the foliage until the point of dripping. Another group of tomato seedlings was left untreated. Plants from each group were isolated in respective Plexiglas boxes. Photographs of the plants were taken on the 17th day after treatment. One plant in each treatment group had died.

Polyphenol Oxidase (PPO) = assay: Polyphenol oxidase (PPO) induction in tomato plants (Example 2); assay type: in vivo; conditions: tomato seedlings, 1.5 mM + 0.5% canola oil + 0.125% Triton X-100, 24 hours; FIG. 2
Method: Three test samples were prepared using tomato seedlings. The descriptions of the treatments given to each test sample can be found in Table 3 below.
Liquid formulations were applied by spraying three squirts to the foliage with a spray bottle. Seedlings from each treatment were isolated in plastic boxes (i.e., as in Example 1, plants given the same treatment were isolated together). Polyphenol oxidase assays were carried out on the entire foliage of each plant 24 hours after application (Stout, M. J., Brovont, R. A., and Duffey, S. S., J. Chemical Ecology 24:6, pp. 946-963, the contents of which are incorporated by reference in their entirety).
The assay procedure was as follows. Tomato leaflets were weighed and ground in 1 ml of ice-cold extraction buffer (0.1M sodium phosphate buffer, pH 7, containing 3.5% polyvinylpolypyrolidine). Following grinding, 0.4 ml of 10% Triton® X-100 was added to the leaf homogenate, mixed and centrifuged for 15 minutes at 2000×g at 4-degrees. Fifteen microliters of the resulting supernatant was added to 1 ml of PPO Assay Buffer (2.92 mM caffeic acid in pH 7 sodium phosphate buffer) and the change in absorbance at A470 was recorded every minute for 10 minutes. Change in absorbance rate (OD A470/min/g protein) reflects the rate of formation of a compound produced by the activity of PPO. […]

[2] = test system: cell suspension cultures of E. californica; conditions: cited from earlier work
gene expression = conditions: tobacco plants; cited from earlier work

SMILES | PPO activity (Polyphenol Oxidase) | proteinase inhibitor level compared with wounding response [1] | concentration at which more efficacious against aphids (aphids) | incidence of aphids on roses (aphids) | progression of powdery mildew incidence (powdery mildew) | proteinase (trypsin) inhibitor activity (trypsin inhibitor) | signs of disease in seedlings (damping off disease) | elicitation of plant defenses (PPO) compared with MJ (Polyphenol Oxidase; field-grown roses, 5 mM, 44 hours) | activation of PPO (Polyphenol Oxidase (PPO)) | concentration inducing benzo[c]phenanthridine alkaloid synthesis [2] | concentration relative to MJ required for the same effect [2] | bioactivity relative to MJ (gene expression) | enhancement of proteinase inhibitor activity compared with MJ (trypsin inhibitor; 5.0 mM)
CC/C=C\CC1C(=O)CCC1CC(=O)OC (stereo not shown) [MJ, methyl jasmonate, reference compound] | increased PPO activity | much greater level than the plant's natural response to wounding | more efficacious at the higher concentration of 5 mM | reduced aphid counts | similarly effective in slowing the progression of powdery mildew incidence | enhanced proteinase inhibitor activity | – | – | – | – | – | – | –
CCCCCC1C(=O)CCC1CC(=O)OC (stereo not shown) [MDHJ, methyl dihydrojasmonate] | increased PPO activity | much greater level than the plant's natural response to wounding | more efficacious at the lower concentration of 1.5 mM | reduced aphid counts | similarly effective in slowing the progression of powdery mildew incidence | enhanced proteinase inhibitor activity | did not show signs of disease | equal to or better than the levels seen after MJ application | activate PPO | 10 µM | five times the concentration of MJ required to produce the same effect | only a small fraction of the bioactivity of MJ | to a greater degree than MJ
